Bounds are passed on as bounds.

By inhibition is commonly meant the percentage by which the read-out fell short of the control. As a reminder, the melting point is the temperature of the solid-liquid transition.

Data set [1] has as its target T1, kinase domain protein of RC kinase (Homo sapiens, UniProt Q56UN5).
T1 sequence (Q56UN5 1061-1324 limits assumed): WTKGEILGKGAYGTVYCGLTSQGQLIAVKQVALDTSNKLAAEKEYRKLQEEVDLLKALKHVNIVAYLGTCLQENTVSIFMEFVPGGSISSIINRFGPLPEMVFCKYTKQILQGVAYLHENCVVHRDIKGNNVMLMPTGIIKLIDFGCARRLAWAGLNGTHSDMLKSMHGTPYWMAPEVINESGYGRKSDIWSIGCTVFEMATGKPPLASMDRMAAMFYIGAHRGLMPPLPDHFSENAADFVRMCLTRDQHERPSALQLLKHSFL
The data set can be described thus: Enzymatic assay for kinase inhibitory activity (Crebtide substrate, LANCE read-out). Type of data set: biochemical. To be noted: compound at 1 μM. The gist of the method: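 Compound tested at 1 μM final in HEPES/MgCl2/DTT buffer with 50 nM Crebtide and kinase domain at 1 μM ATP; full-length kinase at 3 μM ATP after 45 min preincubation. Reaction 45 min at room temperature, stopped with EDTA, read by LANCE TR-FRET (665/615 nm). Activity binned as % inhibition at 1 μM.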

In the case of `COc1ccc(/C=N/c2[nH]nc(Nc3cccc(Cl)c3)c2C#N)cc1F` [Compound A93], the melting point was 217 to 220 °C. For the same molecule, the inhibition at 1 µM in data set [1] fell in the range of 20 to 50%.
As for `N#Cc1c(Nc2cccc(Cl)c2)n[nH]c1/N=C/c1ccc(F)cc1O` [Compound A98], the melting point lay within 232 to 238 °C. For the same molecule, the inhibition at 1 µM in data set [1] fell in the range of 20 to 50%.
In turn, `Cc1cc(F)ccc1/C=N/c1[nH]nc(Nc2cccc(Cl)c2)c1C#N` [Compound A99] displayed a melting point of 253 to 257 °C. The inhibition at 1 µM in data set [1] was in the range of 5 to 20%.
As to `COc1ccc(/C=N/c2[nH]nc(Nc3cccc(Cl)c3)c2C#N)cn1` [Compound A100], the melting point is 286 to 291 °C. The inhibition at 1 µM in data set [1] lay in the range of 5 to 20%.
`Cc1ccc(/C=N/c2[nH]nc(Nc3cccc(Cl)c3)c2C#N)c(O)c1` [Compound A101] yielded a melting point of 293 to 296 °C. Further, the inhibition at 1 µM in data set [1] is at most 5%.
Molecule `N#Cc1ccc(/C=N/c2[nH]nc(Nc3cccc(Cl)c3)c2C#N)cc1` [Compound A102] showed a melting point of 266 to 274 °C. Besides, the inhibition at 1 µM in data set [1] was 5 to 20%.
As to `N#Cc1c(Nc2cccc(Cl)c2)n[nH]c1/N=C/c1cnc(N)s1` [Compound A103], the melting point lay within 221 to 225 °C. The “Activity (inhibition of the RC kinase activity)” value in data set [1] (1 µM) is “D (no greater than 5% inhibition of the RC kinase activity at 1 μM)”.
Take `N#Cc1c(Nc2cccc(Cl)c2)n[nH]c1/N=C/c1cc[nH]c1` [Compound A106]: the melting point lay in the range of 240 to 248 °C. Moreover, the inhibition at 1 µM in data set [1] is at most 5%.
The molecule `N#Cc1c(Nc2cccnc2)n[nH]c1/N=C/c1ccc(O)cc1` [Compound A110] returned a melting point of 311 to 314 °C. Further, in data set [1], the inhibition at 1 µM lay in the range of 20 to 50%.
In the case of `N#Cc1c(Nc2cccc(Cl)c2)n[nH]c1/N=C/c1ccc(Oc2ncccn2)cc1` [Compound A111], the melting point fell in the range of 224 to 230 °C. Moreover, the inhibition at 1 µM in data set [1] lay within 20 to 50%.
In turn, `N#Cc1c(Nc2cccc(Cl)c2)n[nH]c1/N=C/c1ccc(Oc2ccc(C(F)(F)F)cn2)cc1` [Compound A112] came in with a melting point of 268 to 270 °C. Moreover, the “Activity (inhibition of the RC kinase activity)” value in data set [1] is “C (no greater than 20% but at least 5% inhibition of the RC kinase activity at 1 μM)”.
For the molecule `COc1cccc(O)c1/C=N/c1[nH]nc(Nc2ccccc2Cl)c1C(N)=O` [Compound B1], the melting point lay within 238 to 246 °C. For the same molecule, in data set [1], the inhibition at 1 µM was 5 to 20%.
Molecule `NC(=O)c1c(Nc2cccc(Cl)c2)n[nH]c1N=Cc1ccc(O)c([N+](=O)[O-])c1` [Compound B2, 3-((3-chlorophenyl)amino)-5-((4-hydroxy-3-nitrobenzylidene)amino)-1H-pyrazole-4-carboxamide] showed a melting point of 296 to 298 °C. The inhibition at 1 µM in data set [1] is at least 50%.
`COc1ccc(C=Nc2[nH]nc(Nc3cccc(Cl)c3)c2C(N)=O)cc1` [Compound B3, 3-((3-chlorophenyl)amino)-5-((4-methoxybenzylidene)amino)-1H-pyrazole-4-carboxamide]: the melting point lay in the range of 295 to 297 °C. For the same molecule, the inhibition at 1 µM in data set [1] is 5 to 20%.
Molecule `NC(=O)c1c(Nc2cccc(Cl)c2)n[nH]c1/N=C/c1ccc(Cl)cc1` [Compound B4, 5-((4-chlorobenzylidene)amino)-3-((3-chlorophenyl)amino)-1H-pyrazole-4-carboxamide] yielded a melting point of 303 to 305 °C. Also, the inhibition at 1 µM in data set [1] is 5 to 20%.
`NC(=O)c1c(Nc2cccc(Cl)c2)n[nH]c1/N=C/c1ccc(O)cc1` [Compound B5] showed a melting point of 261 to 263 °C. Further, in data set [1], the inhibition at 1 µM is at least 50%.
Taken in the same sequence, the figures for `COc1cc(/C=N/c2[nH]nc(Nc3cccc(Cl)c3)c2C(N)=O)ccc1O` [Compound B7] were 268 to 270 °C and at least 50%.
The molecule `COc1cccc(/C=N/c2[nH]nc(Nc3cccc(Cl)c3)c2C(N)=O)c1` [Compound B8] returned a melting point of 283 to 285 °C. Besides, the inhibition at 1 µM in data set [1] was 20 to 50%.
For `NC(=O)c1c(Nc2ccccc2)n[nH]c1/N=C/c1ccc(O)c([N+](=O)[O-])c1` [Compound B9], in that order: 275 to 277 °C and at least 50%.
For `NC(=O)c1c(Nc2ccccc2)n[nH]c1/N=C/c1ccc(Cl)cc1` [Compound B12], the melting point was in the range of 291 to 293 °C. For the same molecule, in data set [1], the inhibition at 1 µM fell in the range of 5 to 20%.
Take `COc1ccc(/C=N/c2[nH]nc(Nc3ccccc3)c2C(N)=O)cc1` [Compound B13]: the melting point fell in the range of 257 to 260 °C. Besides, the inhibition at 1 µM in data set [1] was 20 to 50%.
With `NC(=O)c1c(Nc2cccc(Cl)c2)n[nH]c1/N=C/c1cccc2ccccc12` [Compound B15], the melting point fell in the range of 280 to 283 °C. Moreover, the inhibition at 1 µM in data set [1] is 5 to 20%.
The molecule `COc1ccccc1/C=N/c1[nH]nc(Nc2cccc(Cl)c2)c1C(N)=O` [Compound B18] gave a melting point of 270 to 273 °C. Also, the inhibition at 1 µM in data set [1] was 20 to 50%.
Take `NC(=O)c1c(Nc2cccc(Cl)c2)n[nH]c1/N=C/c1c[nH]cn1` [Compound B19]: the melting point was 265 to 267 °C. The inhibition at 1 µM in data set [1] was 20 to 50%.
Regarding `NC(=O)c1c(Nc2ccc(Cl)cc2)n[nH]c1/N=C/c1ccc[nH]1` [Compound B20], the melting point is 273 to 277 °C. For the same molecule, in data set [1], the inhibition at 1 µM is 20 to 50%.
Consider `NC(=O)c1c(Nc2ccc(Cl)cc2)n[nH]c1/N=C/c1ccccc1` [Compound B21], for which the melting point fell in the range of 303 to 306 °C. In addition, in data set [1], the inhibition at 1 µM lay in the range of 5 to 20%.
Molecule `NC(=O)c1c(Nc2ccc(Cl)cc2)n[nH]c1/N=C/c1ccc(O)c([N+](=O)[O-])c1` [Compound B22] showed a melting point of 295 to 297 °C. Besides, the inhibition at 1 µM in data set [1] is 20 to 50%.
The molecule `COc1ccc(/C=N/c2[nH]nc(Nc3ccc(Cl)cc3)c2C(N)=O)cc1` [Compound B23] returned a melting point of 313 to 315 °C. Moreover, the inhibition at 1 µM in data set [1] is at most 5%.
Consider `NC(=O)c1c(Nc2ccc(Cl)cc2)n[nH]c1/N=C/c1ccc(Cl)cc1` [Compound B24], for which the melting point was in the range of 307 to 309 °C. For the same molecule, the inhibition at 1 µM in data set [1] was at most 5%.
Taken in the same sequence, the figures for `NC(=O)c1c(Nc2ccc(Cl)cc2)n[nH]c1/N=C/c1cccc2ccccc12` [Compound B25] were 290 to 296 °C and at most 5%.
Regarding `NC(=O)c1c(Nc2ccc(Cl)cc2)n[nH]c1/N=C/c1ccc(O)cc1` [Compound B26], the melting point lay within 288 to 289 °C. Moreover, the inhibition at 1 µM in data set [1] is at least 50%.
For `NC(=O)c1c(Nc2ccc(Cl)cc2)n[nH]c1/N=C/c1ccc([N+](=O)[O-])cc1` [Compound B27], in that order: 291 to 293 °C and 5 to 20%.
In turn, `NC(=O)c1c(Nc2cccc(Cl)c2)n[nH]c1/N=C/c1ccc(O)cc1O` [Compound B30] yielded a melting point of 220 to 225 °C. Moreover, in data set [1], the inhibition at 1 µM was at least 50%.
In turn, `COc1cccc(/C=N/c2[nH]nc(Nc3ccc(Cl)cc3)c2C(N)=O)c1` [Compound B33] registered a melting point of 279 to 283 °C. In data set [1], the inhibition at 1 µM was at most 5%.
`COc1ccccc1/C=N/c1[nH]nc(Nc2ccc(Cl)cc2)c1C(N)=O` [Compound B34] showed a melting point of 270 to 273 °C. In data set [1], the inhibition at 1 µM was at most 5%.
Taken in the same sequence, the figures for `NC(=O)c1c(Nc2ccc(Cl)cc2)n[nH]c1/N=C/c1ccc(O)cc1O` [Compound B36] were 243 to 246 °C and at least 50%.

These data come from patent US9365556B2, “3,5-diaminopyrazole kinase inhibitors” (Axikin Pharmaceuticals, Inc., priority 2012, dated 2016).
